The test system of the assay is Pituitary tumor stem cells and adherent daughter cells. As to the kind of experiment: WST-1 proliferation assay of resistance to chemotherapeutic treatment. Format: cell-based, human. As to conditions: 50 μM carboplatin and 12.5 μM VP16 for 48 h; stem cells compared with adherent cells. As to the method:
Pituitary tumor stem cells and adherent daughter cells were also tested for the resistance to chemotherapeutic treatment. Cells were treated with 50 μM carboplatin and 12.5 μM VP16 for 48 h and the toxicity was assessed by WST-1 proliferation assay.
(Formazan colour is commonly taken as a measure of viable cells.)

`N.N.O=C([O-])C1(C(=O)[O-])CCC1.[Pt+2]` [carboplatin]: the “toxicity assessed by WST-1 proliferation assay (resistance of pituitary tumor stem cells vs adherent daughter cells)” value is given as “significantly more resistant than the adherent cells”.

Consider `COc1cc([C@@H]2c3cc4c(cc3[C@@H](O[C@@H]3O[C@@H]5CO[C@@H](C)O[C@H]5[C@H](O)[C@H]3O)[C@H]3COC(=O)[C@H]23)OCO4)cc(OC)c1O` [VP16], for which the “toxicity assessed by WST-1 proliferation assay (resistance of pituitary tumor stem cells vs adherent daughter cells)” value is listed as “significantly more resistant than the adherent cells”.

These data come from patent US20100062477A1, “METHODS OF ISOLATING AND PROPAGATING STEM CELLS FROM BENIGN TUMORS” (CEDARS-SINAI MEDICAL CENTER, priority 2006, published 2010).
